Assay results published in US20240366560A1, “SMALL MOLECULE TREATMENT OF FATTY LIVER DISEASE AND HCC” (ScandiEdge Therapeutics AB, priority 2021, published 2024).

What was measured:
FASN = FASN protein level by western blot in steatosis-induced HepG2, 7-day drug treatment; assay type: cell-based; details: steatosis-induced HepG2, 7 days of drug treatment, P<0.05, FIG. 2C
Experimental: WT HepG2 was included in this study and cultured by Roswell Park Memorial Institute (RPMI, R2405, Sigma Aldrich) 1640 Medium with 10% fetal bovine serum (FBS) and 1% penicillin-streptomycin (PS). To induce a steatosis model into WT HepG2 cells, high glucose Dulbecco's Modified Eagle Media (DMEM, D0822/D5671, Sigma-Aldrich) containing 10% FBS and 1% PS was used as medium for one week, together with 10 μg/mL insulin and 10 μM T0901317. All of cells were incubated in the incubator with 5% CO2 and 37° C. (Thermo SCIENTIFIC). Fresh medium was provided every two days.
As for drug-screening, different numbers of HepG2 cells were seeded for distinct experiments. More in details, 40,000 cells and 500,000 cells were used for 2-day-drug treatment in 96-well-plate and 6-well plate, respectively, while 80,000 cells and 300,000 cells were used for one-week drug treatment in 96-well plate and 6-well plate, respectively. Detailed drug dosages could be found in FIG. 5. Fresh medium was provided every two days.
Protein content levels were detected by western blot. After the respective treatment of drugs, the cell pellets were lysed in cell lytic M, followed by protein extraction from supernatant (10 min, 13,000r/min centrifuge). Extracted cell lysate was stored in −20° C. Proteins were quantified through Bovine albumin serum (BAS) standard curve with protein assay dye reagent (BIO-RAD). The proteins were separated by SDS-PAGE with 100v in 90 min by mini-protein TGX precast gels (4-15%, 15 wells, 15 μl/well, BIO-RAD), and then transfer to Mini PVDF transfer package through transfer system (Transfer-Turbo, BIO-RAD). After 30 min blocking with 5% skim milk in cold room (4° C.) and washing with TBST, membrane was cut by the size of interested proteins. Primary antibodies were added into the corresponding membrane sections for overnight binding. Then the membranes were washed with TBST, and the secondary antibodies were incubated for 1 h in cold room. The following antibody were used: (Goat pAb to Rb lg, ab205718, abcam; Rb pAb to beta-actin, ab8227, abcam; anti-pklr, HPA006653, SIGMA; Rb pAb to fatty acid synthase, ab99539, abcam). The bindings were imaged by immunostaining and machine (ImageQuant LAS 500). All antibodies were purchased from Abcam online, and βactin was used as global normalized protein. After measurement, the strength of signal for each protein was quantified by ImageJ. The background noise was removed, and all results were normalized by the levels of β-actin.
To further analyse the effect of these drugs on lipid accumulation via the DNL pathway, steatosis was induced to HepG2 by treating the cells with high glucose medium (DMEM), insulin and T0901317 (Hansmannel et al., 2006). […] Therefore, the effects of these two drugs on the de novo synthesis of lipids were investigated based on the steatosis-induced HepG2 model. […] Taken together, it was shown that BX-912 and JNK-IN-5A effectively alleviate the protein expression of PKLR and FASN as well as TG levels in HepG2 cell lines, and thus, it was decided to perform in vivo evaluations to test the effect of these two drugs.

steatosis-induced HepG2 = assay: Triglyceride assay in steatosis-induced HepG2; assay type: cell-based; details: steatosis-induced HepG2, 7 days of drug treatment, FIG. 2D
Experimental: All of cells were incubated in the incubator with 5% CO2 and 37° C. (Thermo […]). Fresh medium was provided every two days.

Pklr = assay: In vivo efficacy study in rats: hepatic Pklr expression; details: rat animal study
Experimental: In vivo efficacy studies. […] The HSD group were treated with vehicle solution only.

HepG2 cells = assay: MTT assay of liver cancer cell viability; assay type: cell-based; details: HepG2, 10 μM, two days, FIG. 4
Experimental: HepG2 cells were seeded into a 96 well plate at 20,000 cells per well as hexaplicated. Next day, treatment of the cells with 10 μM drugs (BX-912 and JNK-IN-5A) was started. The treatment lasted for two days. Cell viability was measured using MTT assay. Cells were incubated with 5 mg/ml MTT 3-4 5-DIMETHYLTHIAZ ([…] Thermo fisher) in PBS for 2 h. Microplate reader measured cell viability O.D at 570 nm.

Sprague Dawley male rats = assay: In vivo biosafety study: histopathological examination of major organs; parameters: species or system rat; details: 30 mg/kg oral, 7 days, CHOW
Experimental: In vivo biosafety studies. Healthy Sprague Dawley male rats (12 weeks old, 250-280 g) were obtained from Atatürk University Experimental Research Center (ATADEM, Erzurum Turkey) and housed under standard environmental conditions (temperature 20° C.-25° C., humidity 50±20% and 12-hour light/dark diurnal cycle). Food and water were available ad libitum. Rats were randomly separated into one control group and two experimental groups (30 mg/kg/day BX-912 or JNK-IN-5A, n=5). BX-912 and JNK-IN-5A were dissolved in DMSO and orally administrated using oral gavage for 7 days. The control group were received the same amount of vehicle solution only.
After 7 days, rats were anaesthetized, and blood samples were collected from the abdominal aorta for biochemical and haematological analysis. The plasma was separated and stored at −80° C. for further analysis. Major organs such as heart, kidney, liver, muscle, adipose, intestine (duodenum, ileum, jejunum), pancreas, colon, and stomach were collected from all the animals for further analysis. Selected organs were fixed in 10% neutral buffered formalin for histopathological examination.
Histopathological examination. The liver tissues were fixed in 10% buffered formaldehyde solution. After fixation, the tissues were passed through graded alcohol and xylene series and embedded in paraffin blocks. 5 micrometer thick sections were taken serially from the paraffin blocks. Histopathological changes were evaluated by performing hematoxylin eosin staining on the sections taken. Sections were evaluated according to histopathological findings as none (−), mild (+), moderate (++) and severe (+++).
To evaluate the potential toxicity of BX-912 and JNK-IN-5A in animals, three groups of 12-week-old rats (n=5) were raised. The first group was fed with CHOW (Ctrl) for seven days. The second group was fed with CHOW plus BX-912 (30 mg/kg) for seven days. The third group was fed with CHOW plus JNK-IN-5A (30 mg/kg) for seven days. After the seven days, all rats were sacrificed, and tissue samples from major organs and blood samples were collected for biosafety evaluation.

| SMILES | protein expression level of FASN (FASN) | content of TGs (normalized by cell viability) (steatosis-induced HepG2) | hepatic Pklr expression in vivo (Pklr) | viability of liver cancer cells in the MTT assay (HepG2 cells) | histological structure of kidney, small intestine, large intestine, stomach, heart, pancreas, muscle tissues and liver (Sprague Dawley male rats) | side effects on the rats (overall conclusion) (Sprague Dawley male rats) |
| --- | --- | --- | --- | --- | --- | --- |
| N#Cc1c(NC(=O)c2cccc3ccccc23)sc2c1CCCC2 [JNK-IN-5A, N-(3-cyano-4,5,6,7-tetrahydrobenzo [b]thien-2-yl)-1-naphthalenecarboxamide] | significantly reduced | significantly decreased | significantly decreased | significantly reduced | normal histological structures | no side effects |
| O=C(Nc1cccc(Nc2ncc(Br)c(NCCc3cnc[nH]3)n2)c1)N1CCCC1 [BX-912, N-[3-[[5-bromo-4-[[2-(1H-imidazol-5-yl)ethyl]amino]-2-pyrimidinyl]amino]phenyl]-1-pyrrolidinecarboxamide] | significantly reduced | significantly decreased | significantly decreased | significantly reduced | normal histological structures | no side effects |
